Measured values: patent publication US20250230154A1, “COMPOUND HAVING SHP2 PROTEIN DEGRADING ACTIVITY, AND MEDICAL USES THEREOF” (UBIX THERAPEUTICS, INC., priority 2021, published 2025)

Molecular target: T1, SHP2 protein (Homo sapiens, UniProt Q06124)
T1 sequence (Q06124 1-593): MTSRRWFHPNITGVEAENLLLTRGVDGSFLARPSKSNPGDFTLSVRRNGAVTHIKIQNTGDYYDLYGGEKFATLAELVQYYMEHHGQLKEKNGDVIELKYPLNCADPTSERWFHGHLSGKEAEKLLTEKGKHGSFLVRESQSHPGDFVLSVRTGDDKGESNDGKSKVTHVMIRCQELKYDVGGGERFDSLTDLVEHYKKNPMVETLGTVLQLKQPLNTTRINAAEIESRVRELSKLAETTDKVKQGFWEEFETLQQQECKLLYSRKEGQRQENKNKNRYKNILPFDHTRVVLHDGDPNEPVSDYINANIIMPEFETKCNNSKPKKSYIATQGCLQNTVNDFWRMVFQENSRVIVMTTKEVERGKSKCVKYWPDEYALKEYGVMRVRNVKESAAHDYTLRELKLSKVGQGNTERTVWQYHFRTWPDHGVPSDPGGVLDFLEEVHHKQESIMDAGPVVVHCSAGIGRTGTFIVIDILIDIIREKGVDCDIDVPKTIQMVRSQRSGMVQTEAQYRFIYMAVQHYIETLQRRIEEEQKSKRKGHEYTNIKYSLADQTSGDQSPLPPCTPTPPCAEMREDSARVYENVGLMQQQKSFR
Experiment: Measurement of SHP2 protein degradation in KYSE-520 cells (western blotting)
Format: cell-based
Set-up: endogenous in cells
Details: 24 hours
Protocol: Experimental Example 1: Measurement of SHP2 Protein Degradation in KYSE-520 Cells
KYSE-520 cells were treated with the synthesized Example compound, and the amount of SHP2 protein present in the cells was measured using western blotting detection. The protocol of the experiment conducted using KYSE-520 cells was as follows:
[Culture] KYSE-520 cells resuspended in RPMI1640 MEDIUM (Hyclone, SH30027.01) containing 5% FBS (Hyclone, SV30207.02) and 1% Penicillin-streptomycin (Welgene, LS 202-02) were seeded at a density of 2.5×10^5/well in a 6-well plate in an amount of 2 ml each and incubated for 2 days.
[Compound treatment] […] After 24 hours, cells were harvested. For the negative control group, DMSO diluted 1/10 to the media (3 mL DMSO+27 mL media) was added.
[Cell Lysis and Protein Quantification] Lysis buffer was prepared as follows: […] of RIPA buffer (Biosesang, RC2038-050-00)+0.5 mM PMSF (SIGMA, P7626)+1× Protease/Phosphatase Inhibitor (Cell signaling, 5872S) per well was added and placed on ice for 30 minutes (vortexing at 0 and 30 minutes, respectively). After sonication process (10 seconds pulse, 30 seconds rest, 5 cycles, 70% amplification), centrifugation (15000 g, 15 min, 4° C.) was performed, and then only the supernatant was taken and transferred to a new microtube. The sample was diluted ¼ with RIPA buffer in a 96-well plate, and mixed with A:B=50:1 of the BCA Protein Assay Kit (iNtRON, 21071). […] each of the mixture was left at 37° C. for 30 minutes, and cooled for 10 minutes. Then, absorbance was measured at 562 nm with the SYNERGY H1 microplate reader from BioTek. After making a sample by quantifying the protein with the measured value, boiling was performed at 70° C. for 10 minutes. At this time, the sample buffer used was a mixture of NuPAGE or Bolt 4× sample buffer (Invitrogen) and each 10× sample reducing agent according to the gel to be used, and RIPA buffer was used for protein dilution.
[Western blotting detection method] The same amount of sample was loaded on NuPAGE or Bolt Bis-tris 4-12% gradient gel and run (200 V, 35 minutes). It was transferred to 0.2 mm NC membrane with Trans-blot Turbo (BIO-RAD) (1.3 A constant, 25 V limit, 15 minutes). Blocking was performed at room temperature for 1 hour with Skim milk or Intercept Blocking Buffer (LI-COR, 927-60001):0.1% TBST=1:1. Anti SHPTP2 Mouse (1:500 in 5% Skim milk/TBST, size: 70 kDa, Santacruz sc-7384) was incubated overnight at 4° C., and Anti GAPDH Rabbit (1:2,000 in 5% BSA/0.2% TBST, size: 37 kDa, CST #2118) was incubated at room temperature for 1 hour 30 minutes or 3 hours. It was washed 3 times for 5 minutes each with 0.2% TBST washing buffer. Secondary antibody Anti-Rabbit IgG (1:5,000 in 5% Skim milk/0.2% TBST, CST), and IRDye® 680RD Goat anti-Rabbit IgG Secondary Antibody (1:10,000 in 5% BSA/0.2% TBST, LI-COR 926-68071) were incubated for 45 minutes on a rocker at room temperature. It was washed 5 times for 5 minutes each with 0.2% TBST washing buffer and detected with LI-COR's Odyssey. At this time, SHPTP2 was detected using SuperSignal West Pico PLUS Chemiluminescent Substrate, and house-keeping genes were also detected.
In the results of Table 4 below, Compounds 1-7, 13-19, and 21-26 are results in KYSE-520 cells, and the others are results in MV-4-11 cells.

Row | Compound | SHP2 degradation (%) 10 nM | SHP2 degradation (%) 100 nM | SHP2 degradation (%) 1000 nM
1 | Cc1ncsc1-c1ccc(CNC(=O)[C@@H]2C[C@@H](O)CN2C(=O)[C@@H](NC(=O)C2(F)CC2)C(C)(C)C)c(OCCCCCC(=O)N2CCC(CCCC(=O)Nc3cccc(Sc4cnc(N5CCC(C)(CN)CC5)cn4)c3Cl)CC2)c1 [Example 26, (2S,4R)—N-(2-((6-(4-(4-((3-((5-(4-(aminomethyl)-4-methylpiperidin-1-yl)pyrazin-2-yl)thio)-2-chlorophenyl)amino)-4-oxobutyl)piperidin-1-yl)-6-oxohexyl)oxy)-4-(4-methylthiazol-5-yl)benzyl)-1-((S)-2-(1-fluorocyclopropane-1-carboxamido)-3,3-dimethylbutanoyl)-4-hydroxypyrrolidine-2-carboxamide] | 40.6% | 83.2% | 95.0%
2 | Cc1ncsc1-c1ccc(CNC(=O)[C@@H]2C[C@@H](O)CN2C(=O)[C@@H](NC(=O)C2(F)CC2)C(C)(C)C)c(OCCCN2CCC(CC(=O)Nc3cccc(Sc4cnc(N5CCC(C)(CN)CC5)cn4)c3Cl)CC2)c1 [Example 6, (2S,4R)—N-(2-(3-(4-(2-((3-((5-(4-(aminomethyl)-4-methylpiperidin-1-yl)pyrazin-2-yl)thio)-2-chlorophenyl)amino)-2-oxoethyl)piperidin-1-yl)propoxy)-4-(4-methylthiazol-5-yl)benzyl)-1-((S)-2-(1-fluorocyclopropane-1-carboxamido)-3,3-dimethylbutanoyl)-4-hydroxypyrrolidine-2-carboxamide] | 19.5% | 82.4% | 95.0%
3 | Cc1ncsc1-c1ccc(CNC(=O)[C@@H]2C[C@@H](O)CN2C(=O)[C@@H](NC(=O)C2(F)CC2)C(C)(C)C)c(OCCN2CCC(CCC(=O)Nc3cccc(Sc4cnc(N5CCC(C)(CN)CC5)cn4)c3Cl)CC2)c1 [Example 13, (2S,4R)—N-(2-(2-(4-(3-((3-((5-(4-(aminomethyl)-4-methylpiperidin-1-yl)pyrazin-2-yl)thio)-2-chlorophenyl)amino)-3-oxopropyl)piperidin-1-yl)ethoxy)-4-(4-methylthiazol-5-yl)benzyl)-1-((S)-2-(1-fluorocyclopropane-1-carboxamido)-3,3-dimethylbutanoyl)-4-hydroxypyrrolidine-2-carboxamide] | −6.1% | 49.6% | 69.2%
4 | Cc1ncsc1-c1ccc(CNC(=O)[C@@H]2C[C@@H](O)CN2C(=O)[C@@H](NC(=O)C2(F)CC2)C(C)(C)C)c(OCCCC(=O)N2CCC(CC(=O)Nc3cccc(Sc4cnc(N5CCC(C)(CN)CC5)cn4)c3Cl)CC2)c1 [Example 23, (2S,4R)—N-(2-(4-(4-(2-((3-((5-(4-(aminomethyl)-4-methylpiperidin-1-yl)pyrazin-2-yl)thio)-2-chlorophenyl)amino)-2-oxoethyl)piperidin-1-yl)-4-oxobutoxy)-4-(4-methylthiazol-5-yl)benzyl)-1-((S)-2-(1-fluorocyclopropane-1-carboxamido)-3,3-dimethylbutanoyl)-4-hydroxypyrrolidine-2-carboxamide] | 8.4% | 44.3% | 64.2%
5 | Cc1ncsc1-c1ccc(CNC(=O)[C@@H]2C[C@@H](O)CN2C(=O)[C@@H](NC(=O)C2(F)CC2)C(C)(C)C)c(OCCCCN2CCC(CC(=O)Nc3cccc(Sc4cnc(N5CCC(C)(CN)CC5)cn4)c3Cl)CC2)c1 [Example 7, (2S,4R)—N-(2-(4-(4-(2-((3-((5-(4-(aminomethyl)-4-methylpiperidin-1-yl)pyrazin-2-yl)thio)-2-chlorophenyl)amino)-2-oxoethyl)piperidin-1-yl)butoxy)-4-(4-methylthiazol-5-yl)benzyl)-1-((S)-2-(1-fluorocyclopropane-1-carboxamido)-3,3-dimethylbutanoyl)-4-hydroxypyrrolidine-2-carboxamide] | 25.4% | 75.2% | 93.8%
